Data taken from patent US20240307342A1, “Treatment of the adverse cardiovascular effects of cannabinoids” (GreenStone Biosciences, Inc., priority 2022, published 2024).
Where two headings read alike, the source gives them in different places.

How the values were obtained:
hiPSC-ECs [1] = test: oxidative stress and inflammation readouts in hiPSC-ECs; assay type: cell-based, human; details: for expression of proinflammatory cytokines and chemokines / inflammation-related genes / TLR4 expression / expression of ROS-related genes NOX1 and iNOS / mRNA expression of antioxidant-related genes (SOD1, SOD2, CAT, GPX1): Δ9-THC alone; for expression of proinflammatory cytokines and chemokines / inflammation-related genes: genistein or AM6545 = reversal of the Δ9-THC-induced effect; for TLR4 expression / expression of ROS-related genes NOX1 and iNOS / mRNA expression of antioxidant-related genes (SOD1, SOD2, CAT, GPX1): genistein = with Δ9-THC
C57BL/6J mice [2] = test: 30-day C57BL/6J mouse model of Δ9-THC-induced endothelial dysfunction, oxidative stress and inflammation; details: for endothelial function (wire myograph, thoracic aorta): 30 days, genistein = Δ9-THC plus genistein; for circulating levels of glutathione / plasma interleukins IL-6, IL-3 and IL-10: Δ9-THC alone; for circulating levels of glutathione: genistein = co-treatment; for plasma interleukins IL-6, IL-3 and IL-10: genistein = cotreatment
Excerpt: Seven-week-old male C57BL/6J mice were obtained from Jackson Laboratory (Bar Harbor, ME, USA). […] Organs were collected, weighed, and fixed with 4% paraformaldehyde (PFA). The thoracic aortas (TAs) were surgically dissected out and cleaned from the surrounding connective tissue for all groups. The TAs were transferred to ice-cold Krebs'-Henseleit solution and cut into segments of 2 mm. The artery segments were mounted in wire-myograph chambers for isometric tension recordings (DanishMyo Technology [DMT]).The chambers contained Krebs'-Henseleit solution. All chambers were aerated with 95% 02/5% CO2, and the temperature was kept constant at 37° C. to mimic physiological conditions. After a manual stabilization and normalization procedure, the PowerLab4/25-Chart7 acquisition systems (AD Instruments Ltd) was used to record force and convert it into tension. The TA segments were pre-constricted using either […] 5HT serotonin (5HT) or U46619. A cumulative application of acetylcholine ([…]) was performed, and the induced vascular dilatations were measured. Subsequently, concentration-response relationship curves were established for each group of 3 mice. Time-matched dimethylsulfoxide (DMSO) application was performed in a separate chamber as the control for all experiments.

ApoE^−/− mice = test: ApoE−/− partial carotid artery ligation (PCAL) atherosclerosis model; assay type: in vivo, mouse; details: for plaque area (Oil Red O), ligated carotid artery: 10 days high-fat diet, genistein = cotreatment with Δ9-THC; for CD68-positive area / F4/80-positive area, ligated carotid artery: genistein = co-treatment with Δ9-THC
[3] = target: G protein-coupled estrogen receptor (Homo sapiens, UniProt Q99527); details: agonist; cited from earlier work
Chain of G protein-coupled estrogen receptor (Q99527 whole entry): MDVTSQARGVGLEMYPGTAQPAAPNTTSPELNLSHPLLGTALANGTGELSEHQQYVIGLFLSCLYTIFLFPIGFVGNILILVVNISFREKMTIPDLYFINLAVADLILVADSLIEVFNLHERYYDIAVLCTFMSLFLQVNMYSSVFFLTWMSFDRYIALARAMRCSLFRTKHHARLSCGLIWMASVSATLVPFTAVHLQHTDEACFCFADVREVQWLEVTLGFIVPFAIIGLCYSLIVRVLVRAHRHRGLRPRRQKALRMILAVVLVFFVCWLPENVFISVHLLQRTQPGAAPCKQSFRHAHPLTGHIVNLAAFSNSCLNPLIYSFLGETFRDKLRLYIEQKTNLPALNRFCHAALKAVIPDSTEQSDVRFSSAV

[4] = not told; cited from earlier work
hiPSC-ECs [5] = test: monocyte adhesion to hiPSC-ECs; assay type: cell-based, human; details: Δ9-THC alone; genistein = with Δ9-THC
Human subjects = test: human study in subjects ingesting medicinal cannabinoids; assay type: in vivo; details: 1 or 5 mg/Kg/day versus placebo
[6] = in vivo; cited from earlier work
[7] = Yang et al. 2012; cited from earlier work
CB1 [8] = target: T1, CB1 (Homo sapiens, UniProt P21554); details: reported as an agonist; cited from earlier work
T1 sequence (P21554 whole entry): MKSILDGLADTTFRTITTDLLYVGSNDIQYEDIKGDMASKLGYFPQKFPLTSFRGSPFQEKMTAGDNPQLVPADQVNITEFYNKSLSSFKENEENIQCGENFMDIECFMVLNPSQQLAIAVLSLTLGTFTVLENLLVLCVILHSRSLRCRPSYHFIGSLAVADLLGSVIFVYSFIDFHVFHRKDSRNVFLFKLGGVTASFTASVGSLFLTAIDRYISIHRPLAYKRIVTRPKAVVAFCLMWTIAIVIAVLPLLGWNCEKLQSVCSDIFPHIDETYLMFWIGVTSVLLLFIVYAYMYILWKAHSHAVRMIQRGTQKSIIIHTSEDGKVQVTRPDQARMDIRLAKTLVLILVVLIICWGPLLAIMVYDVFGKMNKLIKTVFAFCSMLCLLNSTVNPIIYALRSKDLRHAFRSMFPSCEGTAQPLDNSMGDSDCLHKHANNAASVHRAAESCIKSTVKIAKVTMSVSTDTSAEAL

CB1 [9] = target: T1, CB1; test: CB1 radioligand binding assay
human CB2 = human CB2 (Homo sapiens, UniProt P34972); details: reported as an agonist; cited from earlier work
Chain of human CB2 (P34972 whole entry): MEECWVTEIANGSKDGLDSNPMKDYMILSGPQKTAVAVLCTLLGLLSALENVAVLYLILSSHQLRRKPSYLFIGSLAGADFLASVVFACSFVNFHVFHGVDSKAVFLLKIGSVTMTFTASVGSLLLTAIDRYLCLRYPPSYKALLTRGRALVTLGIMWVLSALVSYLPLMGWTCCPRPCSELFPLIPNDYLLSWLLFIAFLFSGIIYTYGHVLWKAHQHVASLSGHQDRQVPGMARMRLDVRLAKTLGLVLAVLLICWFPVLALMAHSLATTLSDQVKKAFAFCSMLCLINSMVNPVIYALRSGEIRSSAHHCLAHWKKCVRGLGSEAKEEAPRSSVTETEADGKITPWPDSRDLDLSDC

CB1 [10] = target: T1, CB1; test: in vitro GTPase assay; assay type: biochemical
[11] = test system: LDL receptor knock-out mice (B6.129S7-Ldlr^tm1Her/J); test: atherosclerosis in LDL receptor knock-out mice on high-fat diet; assay type: in vivo, mouse; details: for serum lipid profiles or blood pressure: 12 weeks high-fat diet, genistein = cotreatment with Δ9-THC; for CD68-positive area in the aortic root (macrophage recruitment) / plaque size (Oil Red O; aortic root cross-sections and en face thoracic aorta): 12 weeks, genistein = co-treatment with Δ9-THC
Procedure: After 12 weeks, the mice were euthanized, and the atherosclerotic lesion area was examined by cross-sections of the aortic root and an en face analysis of the thoracic aorta. […] Macrophage recruitment in the aortic root was analyzed using aortic plaque stained with an anti-CD68 antibody.

C57BL/6J mice [12] = test: neurobehavioral testing (Billy Martin tetrad); assay type: in vivo, mouse
[13] = test system: human endothelial cells (HUVECs and HCAECs); test: cytotoxicity in human endothelial cells
[14] = test system: human cardiac fibroblasts-ventricular (NHCF-V); test: cytotoxicity in cardiac fibroblasts
human endothelial cells = test: inflammation and antioxidant gene expression in human endothelial cells
hiPSC-ECs [15] = test: cytotoxicity in hiPSC-ECs
[16] = Δ9-THC 20 mg/kg i.p., 60 min post-dosing

With `Cc1c(C(=O)NN2CCS(=O)(=O)CC2)nn(-c2ccc(Cl)cc2Cl)c1-c1ccc(C#CCCC#N)cc1` [AM6545] the “expression of proinflammatory cytokines and chemokines / inflammation-related genes” value (hiPSC-ECs [1]) was “reversed”.

For `Cc1c(C(=O)NN2CCCCC2)nn(-c2ccc(Cl)cc2Cl)c1-c1ccc(Cl)cc1` [rimonabant], the “mRNA expressions of inflammation induced by Δ9-THC in mouse thoracic artery tissues” value (C57BL/6J mice [2]; with Δ9-THC) was “ameliorated”.

In the case of `O=c1c(-c2ccc(O)cc2)coc2cc(O)cc(O)c12` [genistein, 5,7-dihydroxy-3-(4-hydroxyphenyl)-4H-1-benzopyran-4-one], the “plaque area (Oil Red O), ligated carotid artery” value (ApoE^−/− mice) is reported as “ameliorated plaque size”, the CD68-positive area (ApoE^−/− mice) is reported as “reduced” and the “F4/80-positive area, ligated carotid artery” value (ApoE^−/− mice) is reported as “decreased”. For the same molecule, the affinity [3] was 133 nM, the cell wall permeability [4] was “high cell wall permeability” and the NF-κB phosphorylation (hiPSC-ECs [1]; genistein with Δ9-THC) was “attenuated”. For the same molecule, the TLR4 expression (hiPSC-ECs [1]) was “disrupted”, the “expression of ROS-related genes NOX1 and iNOS” value (hiPSC-ECs [1]) was “salutatory effect” and the “mRNA expression of antioxidant-related genes (SOD1, SOD2, CAT, GPX1)” value (hiPSC-ECs [1]) was “ameliorated”. The “expression of proinflammatory cytokines and chemokines / inflammation-related genes” value (hiPSC-ECs [1]) was “reversed”, the “monocyte adhesion to hiPSC-ECs” value (hiPSC-ECs [5]) was “reversed” and the “incidence of adverse cardiovascular effects of cannabinoid ingestion” value (Human subjects) was “dose-related lower incidence”. For the same molecule, the “endothelial function (wire myograph, thoracic aorta)” value (C57BL/6J mice [2]) was “mitigated”, the “NF-κB phosphorylation and SOD expression in mouse serum” value (C57BL/6J mice [2]; with Δ9-THC) was “attenuated” and the “mRNA expressions of inflammation induced by Δ9-THC in mouse thoracic artery tissues” value (C57BL/6J mice [2]; with Δ9-THC) was “ameliorated”. The “oxidative stress-related gene expression” value (C57BL/6J mice [2]; with Δ9-THC) was “rescued”, the “circulating levels of glutathione” value (C57BL/6J mice [2]) was “ameliorated” and the “plasma interleukins IL-6, IL-3 and IL-10” value (C57BL/6J mice [2]) was “significantly reduced”. The bioavailability [6] was “low bioavailability”, the “blood-brain barrier (BBB) penetration” value [7] was “poor blood-brain barrier (BBB) penetration” and the IC50 (CB1 [8]) was 150 nM. For the same molecule, the IC50 (CB1 [9]) was 150 nM, the IC50 (human CB2) was > 50000 nM and the Ki (human CB2) was > 50000 nM. The “mode of action against CB1” value (CB1 [10]) was “neutral antagonist”, the “serum lipid profiles or blood pressure” value [11] was “Neither Δ^9-THC nor cotreatment with Δ^9-THC and genistein affected” and the “CD68-positive area in the aortic root (macrophage recruitment)” value [11] was “rescued”. For the same molecule, the “plaque size (Oil Red O; aortic root cross-sections and en face thoracic aorta)” value [11] was “ameliorated plaque size”, the Δ9-THC neurobehavioral effects (C57BL/6J mice [12]; genistein 50 mg/kg p.o. in co-treatment with Δ9-THC 20 mg/kg i.p.) was “could not attenuate” and the tetrad effects (C57BL/6J mice [12]; genistein alone, 50 mg/kg p.o.) was “did not affect tetrad effects”.

In the case of `CCCCCc1cc(O)c2c(c1)OC(C)(C)[C@@H]1CCC(C)=C[C@@H]21` [Δ^9-THC, (6aR,10aR)-6,6,9-trimethyl-3-pentyl-6a,7,8,10a-tetrahydro-6H-benzo[c]chromen-1-ol], the “plaque area (Oil Red O), ligated carotid artery” value (ApoE^−/− mice) is reported as “increased”, the CD68-positive area (ApoE^−/− mice) is reported as “significantly increased” and the “F4/80-positive area, ligated carotid artery” value (ApoE^−/− mice) is reported as “significantly increased”. For the same molecule, the cytotoxicity [13] was “induced cytotoxicity”, the “I kappa B (IκB)” value (hiPSC-ECs [1]) was “inhibited” and the “TNFα concentration in the cell culture medium” value (hiPSC-ECs [1]) was “increased”. For the same molecule, the “hydrogen peroxide (H2O2) levels” value (hiPSC-ECs [1]; immunofluorescence staining) was “increased”, the “duration of Δ9-THC-induced expression of proinflammatory cytokines and chemokines after the initial exposure” value (hiPSC-ECs [1]; Δ9-THC 48 hours, then wash-out, no genistein) was 8 to 10 days and the TLR4 expression (hiPSC-ECs [1]) was “induced”. For the same molecule, the “expression of ROS-related genes NOX1 and iNOS” value (hiPSC-ECs [1]) was “upregulated”, the “mRNA expression of antioxidant-related genes (SOD1, SOD2, CAT, GPX1)” value (hiPSC-ECs [1]) was “decreased” and the “expression of proinflammatory cytokines and chemokines / inflammation-related genes” value (hiPSC-ECs [1]) was “increased”. For the same molecule, the cytotoxicity [14] was “without any adverse effect”, the “monocyte adhesion to hiPSC-ECs” value (hiPSC-ECs [5]) was “increased adhesion” and the “endothelial function (wire myograph, thoracic aorta)” value (C57BL/6J mice [2]) was “induced endothelial dysfunction”. For the same molecule, the “plasma concentration of Δ9-THC” value (C57BL/6J mice [2]; intraperitoneal injection, LC-MS) was ~100 ng/mL, the “circulating levels of glutathione” value (C57BL/6J mice [2]) was “decreased” and the “plasma interleukins IL-6, IL-3 and IL-10” value (C57BL/6J mice [2]) was “elevated”. The antioxidant-related gene expression (human endothelial cells) was “reduced”, the “expression of inflammation-related genes” value (human endothelial cells) was “induced” and the cytotoxicity (hiPSC-ECs [15]) was “induced cytotoxicity”. The “serum lipid profiles or blood pressure” value [11] was “Neither Δ^9-THC nor cotreatment with Δ^9-THC and genistein affected”, the “CD68-positive area in the aortic root (macrophage recruitment)” value [11] was “significantly increased” and the “plaque size (Oil Red O; aortic root cross-sections and en face thoracic aorta)” value [11] was “significantly increased plaque size”. For the same molecule, the “analgesia (hot plate 55° C.)” value (C57BL/6J mice [12]; Δ9-THC 20 mg/kg i.p.) was “analgesia”, the “hypothermia (rectal body temperature)” value (C57BL/6J mice [12]; [16]) was “hypothermia” and the “mobility (open field activity chamber)” value (C57BL/6J mice [12]; [16]) was “decreased mobility”. The “sedation (bar test)” value (C57BL/6J mice [12]; [16]) was “sedation”.
